Assay results reported in publication PMC12040169 (PLOS Biology, 2025).

Experiment: in vitro
Details: human, hela cells, % viability

| SMILES | viability at 28.5 h, 10 µM [%] |
| --- | --- |
| COc1ccc(C(=O)Nc2nc3ccc(NC(C)=O)cc3s2)cc1OC [CBK287311] | 101 |
| CC(=O)Nc1nc(-c2cc3ccccc3oc2=O)cs1 [CBK287312] | 106 |
| Cc1ccn2cc(-c3cc4c(ccc5ccccc54)oc3=O)nc2c1 [CBK287313] | 100 |
| CC(=O)c1sc(NC(=O)c2ccccc2Oc2ccccc2)nc1C [CBK287314] | 90.9 |
| CC(=O)Nc1nc(-c2ccc(Cl)s2)cs1 [CBK287317] | 89.5 |
| CC1(C)CC(=O)c2sc(NC(=O)c3ccccc3)nc2C1 [CBK287318] | 85.6 |
| O=C(Cc1ccccc1)Nc1ncc(Cc2ccccc2)s1 [CBK287322] | 95.6 |
| O=C(CSc1nnc2ccccn12)Nc1ccccc1 [CBK287328] | 109 |
| CC(=O)Nc1nnc(-c2ccc(Cl)cc2)s1 [CBK287331] | 94.4 |
| CC(=O)c1sc(NC(=O)c2ccc(N3C(=O)CCC3=O)cc2)nc1C [CBK287334] | 86.5 |
| CC(=O)Nc1nc2ccc(S(C)(=O)=O)cc2s1 [CBK287336] | 110 |
| CS(=O)(=O)c1ccc2nc(NC(=O)c3cccs3)sc2c1 [CBK287340] | 92.6 |
| O=C(CN1C(=O)c2ccccc2C1=O)Nc1nc(-c2ccccc2)cs1 [CBK287343] | 106 |
| O=C(CN1C(=O)CCC1=O)Nc1nc2ccccc2s1 [CBK287345] | 97.7 |
| C=CCNC(=O)CSc1nc2sc(C)c(C)c2c(=O)[nH]1 [CBK287350] | 88.2 |
| COc1ccc2nc(NC(=O)c3cccc(N4C(=O)CCC4=O)c3)sc2c1 [CBK287351] | 108 |
| COc1ccc(C2C(C(=O)Nc3ccccc3)=C(C)Nc3ncnn32)cc1 (stereo not drawn) [CBK287353] | 103 |
| Clc1ccc(-n2ncc3c(NCc4ccccc4)ncnc32)cc1 [CBK287355] | 95.1 |
| Cc1nnc(NC(=O)c2ccc3c(c2)OCO3)s1 [CBK287358] | 104 |
| COc1ccc(CC(=O)Nc2nnc(C)s2)cc1OC [CBK287359] | 113 |
| Cc1nnc(NC(=O)Cc2ccc(F)cc2)s1 [CBK287360] | 103 |
| COc1ccc2nc(NC(=O)c3ccc4ncsc4c3)sc2c1 [CBK287364] | 94.8 |
| COc1cccc2sc(NC(=O)c3ccc4ncsc4c3)nc12 [CBK287365] | 98.5 |
| Cc1ccc2nc(NC(=O)C3COc4ccccc4O3)sc2c1 (stereo not drawn) [CBK287366] | 103 |

| SMILES | viability at 28.5 h, 10 µM [%] |
| --- | --- |
| COc1ccc(NC(=O)c2ccc3ncsc3c2)cc1 [CBK287368] | 107 |
| O=C(NCc1ccccc1)c1cnc2n(c1=O)CCS2 [CBK287371] | 79.7 |
| CC(NC(=O)c1cnc2n(c1=O)CCS2)c1ccccc1 (stereo not drawn) [CBK287372] | 103 |
| O=C(NCCC1=CCCCC1)c1cnc2n(c1=O)CCS2 [CBK287373] | 89.8 |
| Cc1cccc(NC(=O)c2cnc3n(c2=O)CCS3)c1 [CBK287375] | 108 |
| O=C(Nc1ccc(Oc2ccccc2)cc1)c1cnc2n(c1=O)CCS2 [CBK287377] | 95.1 |
| O=C(Nc1ccc(OCc2ccccc2)cc1)c1cnc2n(c1=O)CCS2 [CBK287378] | 91.3 |
| O=C(Nc1cccc(Cl)c1Cl)c1cnc2n(c1=O)CCS2 [CBK287380] | 95.1 |
| O=C(Nc1ccc(F)cc1Cl)c1cnc2n(c1=O)CCS2 [CBK287382] | 104 |
| COc1ccc(C)cc1NC(=O)c1cnc2n(c1=O)CCS2 [CBK287383] | 108 |
| COc1ccc(Cc2nnc(Nc3ccc(OC)cc3)[nH]c2=O)cc1 [CBK287385] | 92.9 |
| Brc1ccc(Nc2ncnc3nc[nH]c23)cc1 [CBK287386] | 105 |
| COc1ccc(NC(=O)CSc2ncnc3c2oc2ccccc23)c(OC)c1 [CBK287395] | 87 |
| O=C(CSc1ncnc2c1oc1ccccc12)NC1CCCCC1 [CBK287396] | 95.4 |
| O=C(CSc1ncnc2c1oc1ccccc12)NCc1ccccc1 [CBK287397] | 101 |
| COc1ccc(C)c2sc(NC(=O)c3sc(C)nc3C)nc12 [CBK287401] | 74 |
| O=C(Nc1nnc(-c2ccc3c(c2)OCCO3)o1)c1cccc(F)c1 [CBK287402] | 101 |
| O=C(Nc1nnc(-c2ccc3c(c2)OCCO3)o1)c1ccccc1F [CBK287405] | 112 |
| Cc1cccc(C(=O)Nc2nnc(C3=COCCO3)o2)c1 [CBK287406] | 94 |
| O=C(Nc1nnc(C2=COCCO2)o1)c1cccc(F)c1 [CBK287408] | 85.3 |
| COc1cc(C(=O)Nc2nnc(C3=COCCO3)o2)cc(OC)c1OC [CBK287410] | 97.6 |
| O=C(Nc1nnc(C2=COCCO2)o1)c1ccco1 [CBK287412] | 95.5 |
| Cc1ccc(C(=O)Nc2nnc(C3=COCCO3)o2)cc1C [CBK287413] | 104 |
| O=C(Cc1cccc2ccccc12)Nc1nnc(C2=COCCO2)o1 [CBK287414] | 86.6 |
